As usually defined, the inhibition is the drop in the measured response relative to a control, in per cent. Higher therefore signals strong suppression.

The text below walks through data of patent EP0388909A2, “Thiazole compounds, processes for the preparation thereof and pharmaceutical composition comprising the same” (FUJISAWA PHARMACEUTICAL CO., LTD., priority 1989, dated 1990).

Where a name gives a salt, the structure may show the parent alone.

One test has as its target T1, cyclooxygenase (Oryctolagus cuniculus, UniProt O97554).
T1 construct: Washed rabbit PRP (900 µl) was preincubated with drug solution; endogenous in cells; host or cells: washed rabbit platelets (PRP)
T1 sequence (O97554 31-606): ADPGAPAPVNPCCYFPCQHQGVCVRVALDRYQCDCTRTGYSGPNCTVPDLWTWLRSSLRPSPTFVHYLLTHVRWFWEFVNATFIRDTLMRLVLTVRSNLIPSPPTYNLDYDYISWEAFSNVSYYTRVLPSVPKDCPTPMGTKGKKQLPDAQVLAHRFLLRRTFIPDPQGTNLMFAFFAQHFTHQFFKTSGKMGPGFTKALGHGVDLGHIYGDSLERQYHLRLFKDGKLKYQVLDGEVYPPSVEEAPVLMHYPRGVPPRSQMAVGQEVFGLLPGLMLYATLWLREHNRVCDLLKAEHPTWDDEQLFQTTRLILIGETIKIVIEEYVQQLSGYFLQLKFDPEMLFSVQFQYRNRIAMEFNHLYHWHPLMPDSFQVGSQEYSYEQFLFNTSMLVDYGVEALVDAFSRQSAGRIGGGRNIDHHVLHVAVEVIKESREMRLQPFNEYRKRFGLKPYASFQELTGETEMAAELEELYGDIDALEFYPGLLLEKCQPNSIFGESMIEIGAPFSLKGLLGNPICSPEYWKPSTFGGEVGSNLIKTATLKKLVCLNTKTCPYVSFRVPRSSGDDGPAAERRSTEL
Nature of the test: Effect on malondialdehyde (MDA) production in rabbit platelets. The class given is cell-based. As to conditions: dose required to inhibit the production of malondialdehyde by 50%; washed rabbit PRP, arachidonic acid added; read-out: IC₅₀. As to the method:
Washed rabbit PRP (900 µl) was preincubated with drug solution (dissolved in dimethyl sulfoxide) (100 µl) at 37°C for 5 minutes. Then, 2.5 mM arachidonic acid solution (20 µl) was added to the reaction mixture. After 3 minutes, thiobarbiturate reagent (1000 µl) was added, and the reaction mixture was heated in a boiled water. After centrifugation at 1500 g for 10 minutes, the absorbance of suparnatant was measured at 532 nm. This test was carried out to see inhibitory activity of the test compound against the activity of cyclooxygenase. Activity of the test compound was expressed as IC₅₀ values i.e. doses required to inhibit the production of malondialdehyde by 50%.

The next test has as its system PRP. Nature of the test: Platelet aggregation ex vivo (arachidonic acid induced, PRP after oral dosing). As to conditions: Cavia porcellus, 6 h, Dose 1.0 mg/kg oral, blood collected six hours after administration, arachidonic acid final 50 µM as aggregation inducer, male Hartley guinea-pigs. Type of test: in vivo. As for the experimental part:
Male Hartley guinea-pigs weighing about 300 g were used after 24 hours fasting. Six hours after oral administration of the test compound or vehicle of test compound (control), blood was collected into a tube containing 0.1 vol. of 3.8% sodium citrate and prepared platelet rich plasma (PRP).
To the […] of PRP, 5 µl of arachidonic acid (final 50 µM) was added as an aggregation inducer. Aggregation was measured by using an aggregometer (NKK HEMA-TRACER 1).

Another test deals with isolated rat aorta. The test can be described thus: Relaxation effect on isolated rat aorta (KCl-induced contraction). As to conditions: dose required to relax the isolated rat aorta by 50%; contraction induced by KCl 30 mM; maximum relaxation by 10⁻⁴M papaverine; read-out: ED₅₀. As for the experimental part: Helical strip of rat thoracic aorta was suspended in the organ bath containing Tyrode solution gassed with 95% O₂ - 5% CO₂ at 37°C under 0.5 g load. Contraction was induced by addition of KCℓ solution (final concentration was 30 mM). […] Activities of the test compound were expressed as ED₅₀ values i.e. doses required to relax the isolated rat aorta by 50%.

The next test concerns human washed platelets. Nature of the test: Thrombin induced aggregation in human washed platelets. The class given is cell-based. As to conditions: Concentration 1.0 x 10⁻⁵ M; thrombin final conc. 0.3-0.5 U/ml. As to the method: Blood was drawn from healthy volunteers into a plastic tube containing 1/10 volume of 3.8% sodium citrate and centrifuged at 120 g for 10 minutes to obtain platelet rich plasma (PRP). An equal volume of 25 mM Tris-HCl buffer (pH 7.4) containing 130 mM NaCl and 1.5 mM EDTA (buffer A) was added to the PRP, mixed and centrifuged at 1500 g for 10 minutes. The platelet pellet was suspended in buffer A and centrifuged at 1500 g for 5 minutes. The platelets were resuspended in 25 mM Tris-HCl buffer (pH 7.4) containing 130 mM NaCl and 0.3 mM EDTA and recentrifuged at 1500 g for 5 minutes. The platelets were finally suspended in Tyrode solution containing 0.3 % bovine serum albumin and the platelet count was adjusted to 3 x 10⁸/ml. To 247.5 µl of platelet suspension, 2.5 µl of drug solution was added and incubated for 2 minutes at 37°C prior to addition of thrombin solution (final conc. 0.3-0.5 U/ml). Platelet aggregation was turbidometrically measured using a HEMA-TRACER 1.

For the compound `COc1ccc(-c2nc(CNC(C)=O)sc2-c2ccc(OC)cc2)cc1` [Example 1, 2-acetylaminomethyl-4,5-bis(4-methoxyphenyl)thiazole], the IC50 at cyclooxygenase is 0.015 µM. As to `COc1ccc(-c2nc(CNC(=O)C3=NNC(=O)CC3)sc2-c2ccc(OC)cc2)cc1` [Example 15, 4,5-bis(4-methoxyphenyl)-2-{(6-oxo-1,4,5,6-tetrahydropyridazin-3-yl)carbonyiaminomethyl}thiazole], the inhibition at 1 mg/kg in the test on PRP stood at 100%. Further, the EC50 in the test with isolated rat aorta amounted to 7.3 µM. In the case of `COc1ccc(-c2nc(CNC(=O)c3cccnc3)sc2-c2ccc(OC)cc2)cc1` [Example 19, 4,5-bis(4-methoxyphenyl)-2-(nicotinoylaminomethyl)thiazole hydrochloride], in the test on isolated rat aorta, the EC50 came to 8.2 µM.

`CNC(=O)NCc1nc(-c2ccc(OC)cc2)c(-c2ccc(OC)cc2)s1` [Example 24, 4,5-Bis(4-methoxyphenyl)-2-(3-methylureidomethyl)thiazole]: in the test on human washed platelets, the “Inhibition of the aggregation (%)” value was 71.3%.
